Assays:
[1] = Adsorption/precipitation of SA or AEA in 10 wt % aqueous fly ash or cement slurries at pH 12.5; assay type: physicochemical; conditions: initial SA 3 mM
Description: Adsorption/Precipitation of Sacrificial Agents (SA) or Air Entrainment Agents (AEA) in 10 wt % Aqueous Fly Ash Slurries at pH 12.5:
(§1) The pH of the solutions were adjusted to 12.5 with NaOH.
Adsorption/Precipitation in FA or Cement Slurries: In this protocol, aqueous slurries containing 10 wt % FA or cement were prepared as described above, except that in this case, the cement was added directly into a solution of the SA or AEA in the following proportions: 3.0 g cement or FA, and 27 g of 3 mM sacrificial agent, or 27 g of 1050 mg/l AEA; the latter were prepared in the same way as in the precipitation test above. The residual (soluble) SA or AEA content in the solution was also determined by UV or COD.

[2] = Precipitation in slurry extract or leachate; assay type: physicochemical; conditions: pH 12.5, entries in parentheses
Description: as §1
Precipitation in slurry extract or leachate: To perform this test, FA or cement leachate were prepared in advance, by filtering two liters of a 10 wt % FA, or cement, slurry in 0.03N NaOH which had been left to stand under slow agitation for 30 min; 2.5 g of the filtrate solution was mixed with 22.5 g of the SA or AEA solution in a 50 ml polypropylene centrifuge tube; the latter was shaken vigorously in an orbital shaker (Eberbach Corporation) for 30 min at room temperature, centrifuged for 5 min and then the supernatant solution was filtered (0.45 μm). The SA or AEA content of the solution was determined using an Ultraviolet-Visible (UV) spectrometer or by COD (Chemical Oxygen Demand) measurement.
Entries in parentheses: % precipitation when reacted with solutions extracted from the fly ash slurries (Results in Table 5).

[3] = Paste air entrainment, Minimum air protocol
Description: (§2) Preparation of pastes: Pastes were prepared by pouring 400 g of cementitious powder in the 350-400 g of solution (water and additives) in a vessel (8.4 cm dia,×14.5 cm height) while gently stirring with a spatula; the exact quantity of water depends on the selected W/B ratio (see below); rapid hand mixing was continued for 1 minute, followed by intense stirring at 25° C. during 2 min using a hand-held mixer (BRAUN model MR400). The level of air entrained is dependent on the mode of utilisation of the mixer, namely the height of the mixer from the bottom of the vessel and the length of the mixing stroke; the following protocols were adopted.
Minimum air protocol: The BRAUN mixer is positioned at 1.0 inch from the bottom of the mixing vessel and the up-down motion of the mixer is limited to a 1.0 inch displacement; this provided ‘minimum air’ entrained air levels and is later referred to as ‘Minimum air protocol’ (Results reported in Table 6, col. 1 and Table 7).
(§3) Fluidity measurements: For all air entrainment measurements, the initial fluidity of the paste (without additives) was controlled using the ‘mini-slump’ procedure widely used for paste and grouts. In this protocol, a portion of the paste was transferred into the min-slump cone (a 2¼″ high, 1½″ bottom diameter, ¾″ top diameter cone); excess paste was skimmed-off with a straight; the cone was then raised and the spread diameter of the paste was recorded (average of two measurements). The fluidity is measured at 10 minutes after mixing. The paste is returned to the batch and reserved for subsequent AE measurements. The fluidity of the paste (without SA and AEA) is adjusted by changing the amount of water (water/cementitious ratio) which yields a spread diameter of 115±5 mm. The latter is monitored regularly.
(§4) Air entrainment measurements: For air entrainment measurements, a portion of the paste was transferred to overfill a Plexiglas cylinder (3¾ inches height, 2 inches interior diameter), which was then levelled flush to the top of the cylinder with a straight edge. The mass of the filled cylinder, minus the weight of the empty cylinder, is then recorded and used to calculate the amount of air according to the following formula: […]
(§5) This procedure was carried out at three times at 30 min. intervals (6, 36 and 66 min); the paste was let to stand at rest between measurements, and was stirred gently by hand for one minute prior to the subsequent air entrainment measurements.
Typical mixture compositions for air entrainment measurements in pastes containing a single additive using ‘Minimum air protocol’ (results shown in Table 6, col. 1): […]

[4] = Paste air entrainment, Maximum air protocol; conditions: PCA cement paste; 0.0125% SA or AEA alone; Maximum air protocol
Description: as §2, §3, §4, §5
Other combinations of air entrainment agents and sacrificial agents were prepared as stock solutions following the procedure outlined above, adjusting the weights of the various components to achieve the desired component ratios.

[5] = 10 wt % fly ash B1 (LOI 4.36%) slurry, Air 30/Air 40 0.105 wt %
[6] = 10 wt % fly ash C1, class C (LOI 1.62%) slurry, Air 30/Air 40 0.105 wt %
[7] = 10 wt % fly ash C2 (LOI 3.32%) slurry
[8] = 10 wt % fly ash M1 (LOI […]) slurry, Air 30/Air 40 0.105 wt %
[9] = 10 wt % fly ash M2 (LOI 5.34%) slurry, Air 30/Air 40 0.105 wt %
[10] = 10 wt % fly ash M3 (LOI 11.33%) slurry, Air 30/Air 40 0.105 wt %
[11] = 10 wt % fly ash N (LOI 0.30%) slurry
[12] = solution extracted from 10 wt % fly ash B1 (LOI 4.36%) slurry
[13] = solution extracted from 10 wt % fly ash C1, class C (LOI 1.62%) slurry
[14] = solution extracted from 10 wt % fly ash C2 (LOI 3.32%) slurry
[15] = solution extracted from 10 wt % fly ash M1 (LOI […]) slurry
[16] = solution extracted from 10 wt % fly ash M2 (LOI 5.34%) slurry
[17] = solution extracted from 10 wt % fly ash M3 (LOI 11.33%) slurry
[18] = solution extracted from 10 wt % fly ash N (LOI 0.30%) slurry

Row | Adsorption (wt % Adsorbed) [1, 5] [wt %] | Adsorption (wt % Adsorbed) [1, 6] [wt %] | Adsorption (wt % Adsorbed) [1, 7] [wt %] | Adsorption (wt % Adsorbed) [1, 8] [wt %] | Adsorption (wt % Adsorbed) [1, 9] [wt %] | Adsorption (wt % Adsorbed) [1, 10] [wt %] | Adsorption (wt % Adsorbed) [1, 11] [wt %] | Precipitation (wt % precipitated) [2, 12] [wt %] | Precipitation (wt % precipitated) [2, 13] [wt %] | Precipitation (wt % precipitated) [2, 14] [wt %] | Precipitation (wt % precipitated) [2, 15] [wt %] | Precipitation (wt % precipitated) [2, 16] [wt %] | Precipitation (wt % precipitated) [2, 17] [wt %] | Precipitation (wt % precipitated) [2, 18] [wt %] | Structure (SMILES) | also measured
1 | 25 | 25 | 20 | 13 | 23 | 23 | 16 | 12 | 11 | 14 | 11 | 15 | 13 | 11 | NCc1ccccc1 [BA, Benzylamine] | 
2 | 9 | 61 | 4 | 90 | 9 | 12 | 20 | 0 | 0 | 0 | 80 | 0 | 0 | 0 | O=C([O-])c1cccc2ccccc12.[Na+] [NA, 1-Naphthoic acid sodium salt] | Air entrained ([3]; 50:50 fly ash B1 (LOI 4.36%):PCA paste, 0.1 wt % Air 30 alone or with 0.05 wt % of the SA): 4 vol %; Air entrained ([3]; 50:50 fly ash C1 (LOI 1.62%):PCA paste, 0.1 wt % Air 30 alone or with 0.05 wt % of the SA): 5 vol %; Air entrained ([3]; 50:50 fly ash D (LOI […]):PCA paste, 0.1 wt % Air 30 alone or with 0.05 wt % of the SA): 6 vol %; Air entrained ([3]; 50:50 fly ash M1 (LOI […]):PCA paste, 0.1 wt % Air 30 alone or with 0.05 wt % of the SA): 6 vol %; Air entrained ([3]; 50:50 fly ash M2 (LOI 5.34%):PCA paste, 0.1 wt % Air 30 alone or with 0.05 wt % of the SA): 4 vol %; Air entrained ([3]; 50:50 fly ash M3 (LOI 11.33%):PCA paste, 0.1 wt % Air 30 alone or with 0.05 wt % of the SA): 5 vol %; Air entrained ([3]; 50:50 fly ash R (LOI […]):PCA paste, 0.1 wt % Air 30 alone or with 0.05 wt % of the SA): 4 vol %; Air entrained ([3]; PCA cement paste, 0.1% SA or AEA alone, Minimum air protocol): 0 vol %; Average of air entrained ([3]; over the fly ash:PCA pastes of Table 7, 0.1 wt % Air 30 alone or with 0.05 wt % of the SA): 5%; Air entrained [4]: 0 vol %

From patent US7892350B2, “Sacrificial agents for fly ash concrete” (Boral Material Technologies Inc., priority 2003, dated 2011)
